From patent publication US10383841B2, “Antimicrobial and antiinflammatory composition” (Denovastella AB, priority 2005, dated 2019)

Experiments:
Assay type in all cases: cell-based
[1] = test system: Candida albicans H29; test: Agar dilution method, MIC
Method: (§1) The five strains of Malassezia were CBS7019 M. Furfur, CBS 1871 M. Pachydermatis, CBS7956 M. Slooffiae, CBS7966 M. Globosa and 42132 M. Sympodialis. The Staphylococcus aureus strain and Candida albicans H29 strain (grown on mycobiotic plates). Malassezias were cultured on PO plates and kept in room temperature. Candida albicans were grown on mycobiotic plates at room temperature. Preceding the first experiment the yeasts were reinoculated and stored for five days in a 32° C. thermostat. Afterwards they were continually reinoculated every week to ensure viable strains. S. aureus were refrigerated and reinoculated on a horse blood plate and incubated for one day in 37° C. before being included in any study.
(§2) DST-TG-agar (diagnostic sensitivity test agar) with a glycerol monostearate and tween content to meet the growth requirements of the Malassezias was used. […] The agar was obtained from the Microbiological Laboratories, Sahlgrenska, Gothenburg, Sweden. When received the agar was in a liquid form requiring storage at 55° C.
(§3) The oil extract from example 1 were diluted in DMF (dimethyl formamide) producing a stock solution with 20% extract and 80% DMF. A secondary stock solution was made by diluting a decided volume of the first stem solution in PBS. Finally the solutions were mixed with the soluble agar to obtain concentrations of the extract of 1, 0.5, 0.25, 0.125, 0.0625, 0.05, 0.025 and 0.0125% in the agar. Since the ethanol extract readily dissolved with the agar no emulsifier was needed. The ethanol extract was diluted directly with the agar to obtain concentrations of the extraxt of 1, 0.5, 0.125, 0.1, 0.05, 0.0125, 0.01 and 0.005% in the agar. No precipitations or supernatants were observed.
(§4) Microbes were harvested and suspended into PBS and manually counted in Barker chambers to receive concentrations of 10^7 cells/ml for the Malassezias and 10^5 cells/ml for the Staphylococci and Candida. Due to poor growth of M. globosa, M. slooffiae and emulsions were modified to contain 10^8 cells/ml in the third experiment.
(§5) Using a Pasteur micropipette, plates were inoculated with 20 μl of emulsion. Plates were inoculated with either three or four microorganisms. Control plates containing only agar and plates with mirrored concentration series of DMF and ethanol were made. Additionally, all plates had paralleled controls.
(§6) Plates were incubated in 37° C. for approximately 3 days and then read.

[2] = test system: M. pachydermatis CBS 1871; test: Agar dilution method, MIC
Method: as §1, §2, §3, §4, §5, §6

[3] = test system: M. sympodialis 42132; test: Agar dilution method, MIC
Method: as §1, §2, §3, §4, §5, §6

[4] = test system: Staphylococcus aureus; test: Agar dilution method, MIC
Method: as §1, §2, §3, §4, §5, §6

[5] = test system: M. slooffiae CBS7956; test: Agar dilution method, MIC
Method: as §1, §2, §3, §4, §5, §6

[6] = test system: M. furfur CBS7019; test: Agar dilution method, MIC
Method: as §1, §2, §3, §4, §5, §6

[7] = test system: M. globosa CBS7966; test: Agar dilution method, MIC
Method: as §1, §2, §3, §4, §5, §6

[8] = test system: all microorganisms (five Malassezia strains, Candida albicans, Staphylococcus aureus); test: Agar dilution method, summary over all microorganisms
Method: as §1, §2, §3
Microbes were harvested and suspended into PBS and manually counted in Barker chambers to receive concentrations of 10^7 cells/ml for the Malassezias and 10^5 cells/ml for the Staphylococci and Candida. […]
as §6

[9] = Experiment II, — = no MIC up to maximum titre of that line (Cineole 0.125%, DNS in ethanol 2.5% 0.025%)
[10] = Experiment II, agar control: poor growth

| Structure (SMILES) | MIC [1, 9] | MIC ([1]; Experiment III) | MIC [2, 9] | MIC ([2]; Experiment III) | MIC [3, 9] | MIC ([3]; Experiment III) | MIC ([4]; Experiment III) | MIC [5, 10] | MIC ([5]; Experiment III, 10^8 cells/ml) | MIC [6, 9] | MIC ([6]; Experiment III) | MIC [7, 10] | MIC ([7]; Experiment III, 10^8 cells/ml) | MIC ([7]; Experiment III, 10^8 cells/ml, listed as 1,8-cineole) | highest attained MIC of studied substances [8] | nearly all MICs ([8]; subsequent experiment, four times the initial value) | MIC [4, 9] | MIC spread ([8]; over the microorganisms) |
| --- | --- | --- | --- | --- | --- | --- | --- | --- | --- | --- | --- | --- | --- | --- | --- | --- | --- | --- |
| CC12CCC(CC1)C(C)(C)O2 [Cineole, 1,8-cineole] | 0.125% | 0.500% | 0.125% | 0.500% | 0.0625% | 0.500% | 0.500% | 0.125% | 0.500% | 0.125% | 0.500% | 0.125% | 1.000% | 1.0% | 0.5% | 0.5% |  |  |
| C=CC1(C)CCC(C(C)C(=O)CC=C(C)C)O1 (stereo not drawn) [Davanone, davanone] | 0.0625% |  | 0.0625% |  | 0.0125% |  |  | 0.0125% |  | 0.0625% |  | 0.025% |  |  |  |  | 0.125% | 0.0125-0.125% |
